Data set [1] is described as follows: Half-life time was determined. It is filed as ADME.
The test system of data set [2] is HT-29. The experiment in a line: In vitro inhibitory concentration required against HT-29 human colon cancer cells in the presence of beta-D-glucuronidase. In kind it is functional, cell-based.
The test system of data set [3] is HT-29. The experiment in a line: In vitro inhibitory concentration required against HT-29 human colon cancer cells. In kind it is functional, cell-based.

Here are results for two compounds from ChEMBL document CHEMBL1136630, “Cancer chemotherapy: a SN-38 (7-ethyl-10-hydroxycamptothecin) glucuronide prodrug for treatment by a PMT (Prodrug MonoTherapy) strategy” (Bioorg Med Chem Lett, 2003).

Take `CCc1c2c(nc3ccc(OC(=O)N(C)c4cc([N+](=O)[O-])ccc4OC4CC(C(=O)O)C(O)C(O)C4O)cc13)C1CC3=C(COC(=O)[C@]3(O)CC)C(=O)N1C2` (some centres undefined): the half-life in data set [1] is 12.7 min. In addition, the half-maximal inhibitory concentration (IC50) amounted to 0.026 µM in data set [2] and 1.98 µM in data set [3].

As to `CCc1c2c(nc3ccc(O)cc13)-c1cc3c(c(=O)n1C2)COC(=O)[C@]3(O)CC` [7-ETHYL-10-HYDROXYCAMPTOTHECIN], the midpoint of inhibition in data set [3], the IC50, lay at 0.0273 µM.
